Assay results from patent US11358931B2, “Selective androgen receptor modulators (SARMs) and uses thereof” (priority 2007, dated 2022).
Like-named read-outs stand apart in the source and are kept apart here.

Tests used:
[1] = Pharmacokinetics in orchidectomized male rats (plasma, Day 14); assay type: in vivo; settings: rat, ORX male rats; for AUC: male, po; for Cmax / Tmax: PO
Source text: In this assay, two-month old rats were acclimated in a vivarium for one week. After this acclimation period, rats were surgically orchidectomized under isoflurane anesthesia and left untreated for 14 days. After 14 days, animals were sorted into groups such that no statistically significant differences in mean body weights were observed. Rats began receiving treatment 14 days after the day of surgery. Sham-operated and orchidectomized rats, treated with vehicle, served as controls. The different test groups were treated with various doses of Compound 102 (0.03 to 100 mg/kg/day per os (by mouth)). Dosages included 0.03, 0.1, 0.3, 1, 3, 10, 30 and 100 mg/kg/day. Ostarine, a non-steroidal androgenic drug (Evans et al., J Clin Oncology 25: 9119 (2007)) was dosed at dosages similar to other test groups as a comparison. After the 14th dose, venous blood was collected at 0, 1, 2, 4 and 6 hours after dosing. The blood samples were collected in EDTA-containing tubes (Becton Dickinson, Franklin Lakes, N.J.). Approximately 24 hours after the last dose, animals were euthanized and seminal vesicle weights, ventral prostate weights, levator ani weights, preputial gland weights and blood samples were collected on necropsy.
The determination of plasma concentration was done by an LC-MS/MS method. The standard solution of each drug was spiked in blank rat plasma, calibration standards were constructed from 0.0001 μg/mL to 10 μg/mL; and 50 μL of each calibration standard was extracted with 250 μL of acetonitrile containing 10 ng/mL of internal standard in a 96-well plate. Also, 50 μL of plasma sample was extracted with 250 μL of acetonitrile containing internal standard in a 96-well plate.
Peak pharmacokinetic (PK) parameters were calculated and rounded to three decimal places.

[2] = In vitro genotoxicity assays
Source text: Compounds disclosed herein can be evaluated for efficacy and toxicity using known methods. For example, the toxicology of a particular compound, or of a subset of the compounds, sharing certain chemical moieties, may be established by determining in vitro toxicity towards a cell line, such as a bacterial or mammalian, including human, cell line. The results of such studies are often predictive of toxicity in animals, such as mammals, or more specifically, humans. Exemplary assays include bacterial reverse mutation assays (e.g., see Ames et al., Mutation Research 31: 347-364 (1975); Green et al., Mutation Research 38: 3-32 (1976); and Maron et al., Mutation Research 113: 173-215 (1983), cytological methods for detecting chemical mutagens (Evans, Chemical Mutagens, Principles and Methods for their Detection, Vol. 4 (Plenum Press, New York, N.Y. (1976))), chromosomal aberration assays (Galloway et al., Mutation Research 312(3): 241-261 (1994)), genotoxicity assays (Federal Register 61: 18198-18202 (1996) and Federal Register 62: 16026-16030 (1997)) and cytogenetic assays (Preston et al., Mutation Research 87: 143-188 (1981)).

[3] = tested on: Sprague-Dawley rats; experiment: 14-day oral toxicity study in Sprague Dawley rats; assay type: in vivo, rat
Description: (§1) A Sprague Dawley Rat model was used to study oral toxicity and toxicokinetics. Animals were assigned to groups by a stratified randomization scheme designed to achieve similar group mean body weights and the groups were randomly assigned to a dosing to provide control of bias.
(§2) All animals were dosed via oral gavage once daily for 14 days. The animals were evaluated for changes in clinical signs (mortality/morbidity observations, twice daily), cage side observations (general appearance and behavior), food consumption (quantitatively measured by weighing), body weights, clinical pathology indices including serum chemistry, hematology, coagulation and urinalysis, and other parameters. Blood samples were collected for toxicokinetics analysis from Groups 6-10 at various time points on Days 1 and 14 (Group 6 4 hours post dose; Groups 7-10 at 1, 4 and 12 hours or 2, 8 and 24 hours). The animals were fasted for at least 8 hours prior to blood collections for serum chemistry and urine collection. Serum chemistry parameters tested included alanine aminotransferase, total protein, aspartate aminotransferase, albumin, alkaline phosphatase, globulin, gamma-glutamyl-transferase, albumin/globulin ratio, lactate dehydrogenase, glucose, total bilirubin, cholesterol, urea nitrogen, triglycerides, creatinine, sodium, calcium, potassium, phosphorus and chloride. Hematology parameters analyzed included red blood cell count, reticulocyte count, hemoglobin concentration, red blood cell distribution width, mean corpuscular volume, mean platelet volume, mean corpuscular hemoglobin concentration, white blood cell count and differentials and mean corpuscular hemoglobin. Urinalysis parameters included color/character, ketones, specific gravity, bilirubin, pH, occult blood, protein, glucose and microscopics. Main study animals were euthanized on Day 15. At termination, a full necropsy was conducted and all tissues were collected, preserved, processes and examined microscopically from Groups 1 and 5, and target organs (liver and kidney) from Groups 2-4, by a veterinary pathologist certified by the American College of Veterinary Pathologists.
(§3) Control vehicle included Peg-400 (Sigma P-3265), Tween 80 (Sigma P-8074) and PVP-K30 (polyvinyl pyrrolidone or povidone K-30, Spectrum PN P1454) at a ratio of 90:5:5, w/w/w. Appropriate amounts of Compound 102 were added to the control vehicle to produce homogeneous dosing solutions/suspensions.

[4] = 14-day oral toxicity study in Sprague Dawley rats; assay type: in vivo, rat; settings: Sprague-Dawley, rat, in vivo; SD rats, oral gavage once daily for 14 days; read-out: No-observed-adverse-effect level (NOAEL)
Description: as §1, §2, §3

Structure (SMILES): N#Cc1ccc(N2CCC[C@@H]2[C@@H](O)C(F)(F)F)cc1C(F)(F)F [Compound 102, R,R-4-(2-(1-Hydroxyl-2,2,2-trifluoroethyl)-pyrrolidinyl)-2-trifluoromethyl-benzonitrile]
- AUC ([1]; 0.01 mg/kg, Day 14, 0.01 mg/kg, 0 hr conc. substituted for 24 hr, read-out: AUC24): 15 ng·h/mL
- AUC ([1]; 0.01 mg/kg, Day 14, 0.01 mg/kg, read-out: AUC6): 4 ng·h/mL
- AUC ([1]; 0.03 mg/kg, Day 14, 0.03 mg/kg, 0 hr conc. substituted for 24 hr, read-out: AUC24): 5 ng·h/mL
- AUC ([1]; 0.03 mg/kg, Day 14, 0.03 mg/kg, read-out: AUC6): 2 ng·h/mL
- AUC ([1]; 0.3 mg/kg, Day 14, 0.3 mg/kg, 0 hr conc. substituted for 24 hr, read-out: AUC24): 42 ng·h/mL
- AUC ([1]; 0.3 mg/kg, Day 14, 0.3 mg/kg, read-out: AUC6): 18 ng·h/mL
- AUC ([1]; 1 mg/kg, Day 14, 1 mg/kg, 0 hr conc. substituted for 24 hr, read-out: AUC24): 123 ng·h/mL
- AUC ([1]; 1 mg/kg, Day 14, 1 mg/kg, read-out: AUC6): 63 ng·h/mL
- AUC ([1]; 3 mg/kg, Day 14, 3 mg/kg, 0 hr conc. substituted for 24 hr, read-out: AUC24): 234 ng·h/mL
- AUC ([1]; 3 mg/kg, Day 14, 3 mg/kg, read-out: AUC6): 113 ng·h/mL
- AUC ([1]; 10 mg/kg, Day 14, 10 mg/kg, 0 hr conc. substituted for 24 hr, read-out: AUC24): 764 ng·h/mL
- AUC ([1]; 10 mg/kg, Day 14, 10 mg/kg, read-out: AUC6): 370 ng·h/mL
- AUC ([1]; 30 mg/kg, Day 14, 30 mg/kg, 0 hr conc. substituted for 24 hr, read-out: AUC24): 1880 ng·h/mL
- AUC ([1]; 30 mg/kg, Day 14, 30 mg/kg, read-out: AUC6): 645 ng·h/mL
- AUC ([1]; 100 mg/kg, Day 14, 100 mg/kg, 0 hr conc. substituted for 24 hr, read-out: AUC24): 4050 ng·h/mL
- AUC ([1]; 100 mg/kg, Day 14, 100 mg/kg, read-out: AUC6): 998 ng·h/mL
- Cmax ([1]; Day 14, 0.01 mg/kg): 2 ng/mL
- Tmax ([1]; Day 14, 0.01 mg/kg): 2.8 h
- Cmax ([1]; Day 14, 0.03 mg/kg): 1 ng/mL
- Tmax ([1]; Day 14, 0.03 mg/kg): 2 h
- Cmax ([1]; Day 14, 0.3 mg/kg): 12 ng/mL
- Tmax ([1]; Day 14, 0.3 mg/kg): 1.3 h
- Cmax ([1]; Day 14, 1 mg/kg): 18 ng/mL
- Tmax ([1]; Day 14, 1 mg/kg): 2.5 h
- Cmax ([1]; Day 14, 3 mg/kg): 36 ng/mL
- Tmax ([1]; Day 14, 3 mg/kg): 1.3 h
- Cmax ([1]; Day 14, 10 mg/kg): 111 ng/mL
- Tmax ([1]; Day 14, 10 mg/kg): 1.8 h
- Cmax ([1]; Day 14, 30 mg/kg): 205 ng/mL
- Tmax ([1]; Day 14, 30 mg/kg): 4.3 h
- Cmax ([1]; Day 14, 100 mg/kg): 321 ng/mL
- Tmax ([1]; Day 14, 100 mg/kg): 3.5 h
- genotoxicity [2]: negative
- morbidity / early death ([3]; 10, 100, 300 or 700 mg/kg/day, 14 days): not associated with test article-related morbidity or early death
- macroscopic or microscopic changes (postmortem) ([3]; 10-700 mg/kg/day): no macroscopic or microscopic changes
- urinalysis parameters ([3]; 10-700 mg/kg/day): no alterations
- liver weight ([3]; both sexes, not correlated with hepatocellular size or liver pathology): Dose-dependent liver weight increases
- food consumption ([3]; female animals, all dose levels): statistically significant increase in food consumption
- alkaline phosphatase values and phosphorus concentrations ([3]; female rats dosed at ≥10 mg/kg/day): minimally higher
- reticulocyte counts and red cell distribution width ([3]; female rats ≥10 mg/kg/day): higher reticulocyte counts and red cell distribution width
- platelet counts ([3]; females ≥100 mg/kg/day, males 10 and 700 mg/kg/day): increased with statistical significance
- prothrombin time ([3]; male and female animals, 300 and 700 mg/kg/day): minimal prolongation
- body weight gain ([3]; male and female animals, versus control): increased weight gain compared to control animals
- triglyceride concentrations ([3]; male rats ≥100 mg/kg/day, female rats ≥300 mg/kg/day): minimally lower
- potassium levels ([3]; male rats ≥300 mg/kg/day, female rats ≥100 mg/kg/day): minimally higher
- clinical observations ([3]; particularly female animals at ≥100 mg/kg/day): increased incidence and frequency in rough hair coat and nasal discharge
- NOAEL at 14 days [4]: 700 mg/kg/day
